Assay results: patent US20250092039A1, “GLUTARIMIDE-CONTAINING PAN-KRAS-MUTANT DEGRADER COMPOUNDS AND USES THEREOF” (Tiger Biotherapeutics Inc., priority 2022, published 2025)
Read-outs that look alike come from different tables or passages of the source.

Key:
KRAS G12V = KRAS G12V (Homo sapiens (Human), UniProt P01116, G12V); test: KRAS G12V degradation in SW620 cells (Western blot, DC50); format: cell-based; conditions: 24 hours
Summary of the method: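 SW620 cells (homozygous KRAS G12V) were treated with compound for 24 hours at 37° C. KRAS in lysates was measured by Western blot with fluorescent secondary antibodies and expressed relative to DMSO vehicle (100%). DC50 came from a four-parameter variable-slope dose-response fit.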

SW620 cells = test: 3D cell growth inhibition of SW620 cells carrying endogenous KRAS G12V mutation (CellTiter-Glo 3D, GI50); format: cell-based; conditions: Homo sapiens, SW-620, 144 h, read-out: SW620 3D cell growth GI50
Experimental: The following day, the test compound was administered to the cells by using 1000× compound stock solution prepared in DMSO at various concentrations. 1000× compound stock solution was first diluted in culturing medium to 10×, then 10 μL compound medium was added to each well in the cell plates. After administration of the compound, the cells were then incubated at 37° C. for 6 days. Upon completion, the plates were equilibrated at room temperature for approximately 10 minutes. 100 μL of CellTiter-Glo® 3D Reagent (Promega) was added to each well. The plates were then incubated at room temperature for 30 minutes and luminescence was recorded by EnSpire plate reader (PerkinElmer).

KRAS-G12V/RAF1 = KRAS-G12V/RAF1 (Homo sapiens (Human), UniProt P01116, G12V); test: KRAS/RAF1 binding inhibition assay (AlphaScreen)
Summary of the method: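 Binding of GppNHp-loaded KRAS G12V to the RAF1 RBD was measured by AlphaScreen with test compound present in 2% DMSO (final), 60 min incubation at 4° C. Signals were converted to % inhibition versus DMSO, and IC50 was obtained by variable-slope nonlinear regression.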

KRAS-G12V/RAF1, sequence (P01116-2 other isoform, or with tags, fused parts or gaps G12V): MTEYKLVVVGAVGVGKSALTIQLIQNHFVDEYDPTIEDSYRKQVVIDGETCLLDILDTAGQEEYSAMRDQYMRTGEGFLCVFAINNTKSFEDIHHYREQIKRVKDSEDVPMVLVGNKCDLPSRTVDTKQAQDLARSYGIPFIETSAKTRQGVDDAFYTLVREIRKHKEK
KRAS G12V, sequence (P01116-2 other isoform, or with tags, fused parts or gaps G12V): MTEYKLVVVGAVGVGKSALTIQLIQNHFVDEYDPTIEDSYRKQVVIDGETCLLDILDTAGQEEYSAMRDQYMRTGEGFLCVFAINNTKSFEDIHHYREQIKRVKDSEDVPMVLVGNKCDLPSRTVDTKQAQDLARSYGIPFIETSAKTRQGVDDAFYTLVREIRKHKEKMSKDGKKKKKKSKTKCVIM

Compound | DC50 (KRAS G12V) | GI50 (SW620 cells; SW620 cells, 6 days) | IC50 (KRAS-G12V/RAF1) | GI50 (SW620 cells)
CCc1cccc2cc(O)cc(-c3ncc4c(N5CCC[C@@](C)(O)C5)nc(OCC5(CN6CC[C@H](CN7CC8(CCN(c9ccc%10c(c9)CN(C9CCC(=O)NC9=O)C%10=O)CC8)C7)C6)CC5)nc4c3F)c12 (stereo partly drawn) [Compound 22, 3-(5-(2-(((S)-1-((1-(((7-(8-ethyl-3-hydroxynaphthalen-1-yl)-8-fluoro-4-((R)-3-hydroxy-3-methylpiperidin-1-yl)pyrido[4,3-d]pyrimidin-2-yl)oxy)methyl)cyclopropyl)methyl)pyrrolidin-3-yl)methyl)-2,7-diazaspiro[3.5]nonan-7-yl)-1-oxoisoindolin-2-yl)piperidine-2,6-dione] | > 100 nM | 10 to 100 nM | < 20 nM | 
CCc1cccc2cc(O)cc(-c3ncc4c(N5CCC[C@@](C)(O)C5)nc(OCC5(CN6CC(N7CC(N8CCN(c9ccc%10c(c9)CN([C@H]9CCC(=O)NC9=O)C%10=O)CC8)C7)C6)CC5)nc4c3F)c12 [Compound 168, (S)-3-(5-(4-(1′-((1-(((7-(8-ethyl-3-hydroxynaphthalen-1-yl)-8-fluoro-4-((R)-3-hydroxy-3-methylpiperidin-1-yl)pyrido[4,3-d]pyrimidin-2-yl)oxy)methyl)cyclopropyl)methyl)-[1,3′-biazetidin]-3-yl)piperazin-1-yl)-1-oxoisoindolin-2-yl)piperidine-2,6-dione] | 1 to 10 nM | > 100 nM | 20 to 200 nM | 
CCc1c(F)ccc2cc(O)cc(-c3ncc4c(N5CCOC[C@@](C)(O)C5)nc(OCC5(CN6CCC7(CC6)CC(CN6CCN(c8ccc9c(c8)CN([C@H]8CCC(=O)NC8=O)C9=O)CC6)C7)CC5)nc4c3F)c12 [Compound 105, (S)-3-(5-(4-((7-((1-(((7-(8-ethyl-7-fluoro-3-hydroxynaphthalen-1-yl)-8-fluoro-4-((S)-6-hydroxy-6-methyl-1,4-oxazepan-4-yl)pyrido[4,3-d]pyrimidin-2-yl)oxy)methyl)cyclopropyl)methyl)-7-azaspiro[3.5]nonan-2-yl)methyl)piperazin-1-yl)-1-oxoisoindolin-2-yl)piperidine-2,6-dione] | > 100 nM | > 100 nM | 20 to 200 nM | 
CCc1cccc2cc(O)cc(-c3ncc4c(N5CCC[C@@](C)(O)C5)nc(OCC5(CN6CCC7(CC6)CC(CN6CCN(c8ccc9c(c8)CN([C@H]8CCC(=O)NC8=O)C9=O)CC6)C7)CC5)nc4c3F)c12 [Compound 87, (S)-3-(5-(4-((7-((1-(((7-(8-ethyl-3-hydroxynaphthalen-1-yl)-8-fluoro-4-((R)-3-hydroxy-3-methylpiperidin-1-yl)pyrido[4,3-d]pyrimidin-2-yl)oxy)methyl)cyclopropyl)methyl)-7-azaspiro[3.5]nonan-2-yl)methyl)piperazin-1-yl)-1-oxoisoindolin-2-yl)piperidine-2,6-dione] | 1 to 10 nM |  | 20 to 200 nM | < 10 nM
CCc1c(F)ccc2cc(O)cc(-c3ncc4c(N5CCC[C@@](C)(O)C5)nc(OCC5(CN6CCC(CN7CCN(c8ccc(C9CCC(=O)NC9=O)cc8)CC7)CC6)CC5)nc4c3F)c12 (stereo partly drawn) [Compound 14, 3-(4-(4-((1-((1-(((7-(8-ethyl-7-fluoro-3-hydroxynaphthalen-1-yl)-8-fluoro-4-((R)-3-hydroxy-3-methylpiperidin-1-yl)pyrido[4,3-d]pyrimidin-2-yl)oxy)methyl)cyclopropyl)methyl)piperidin-4-yl)methyl)piperazin-1-yl)phenyl)piperidine-2,6-dione] | > 100 nM | 10 to 100 nM | < 20 nM | 
CCc1c(F)ccc2cc(O)cc(-c3ncc4c(N5CCOC[C@@](C)(O)C5)nc(OCC5(CN6CCC7(CC6)CC(F)(CN6CCN(c8ccc9c(c8)CN([C@H]8CCC(=O)NC8=O)C9=O)CC6)C7)CC5)nc4c3F)c12 [Compound 175, (S)-3-(5-(4-((7-((1-(((7-(8-ethyl-7-fluoro-3-hydroxynaphthalen-1-yl)-8-fluoro-4-((S)-6-hydroxy-6-methyl-1,4-oxazepan-4-yl)pyrido[4,3-d]pyrimidin-2-yl)oxy)methyl)cyclopropyl)methyl)-2-fluoro-7-azaspiro[3.5]nonan-2-yl)methyl)piperazin-1-yl)-1-oxoisoindolin-2-yl)piperidine-2,6-dione] | < 1 nM | < 10 nM | < 20 nM | 
CCc1cccc2cc(O)cc(-c3ncc4c(N5CCC[C@@](C)(O)C5)nc(OCC5(CN6CCC(CN7CCN(c8ccc9c(c8)CN([C@H]8CCC(=O)NC8=O)C9=O)CC7)CC6)CC5)nc4c3F)c12 [Compound 6, (S)-3-(5-(4-((1-((1-(((7-(8-ethyl-3-hydroxynaphthalen-1-yl)-8-fluoro-4-((R)-3-hydroxy-3-methylpiperidin-1-yl)pyrido[4,3-d]pyrimidin-2-yl)oxy)methyl)cyclopropyl)methyl)piperidin-4-yl)methyl)piperazin-1-yl)-1-oxoisoindolin-2-yl)piperidine-2,6-dione] | < 1 nM | < 10 nM | 20 to 200 nM | 
CCc1c(F)ccc2cc(O)cc(-c3ncc4c(N5CCC[C@@]6(CCO6)C5)nc(OCC5(CN6CCC(CN7CCN(c8ccc9c(c8)CN([C@H]8CCC(=O)NC8=O)C9=O)CC7)CC6)CC5)nc4c3F)c12 [Compound 45, (S)-3-(5-(4-((1-((1-(((7-(8-ethyl-7-fluoro-3-hydroxynaphthalen-1-yl)-8-fluoro-4-((R)-1-oxa-6-azaspiro[3.5]nonan-6-yl)pyrido[4,3-d]pyrimidin-2-yl)oxy)methyl)cyclopropyl)methyl)piperidin-4-yl)methyl)piperazin-1-yl)-1-oxoisoindolin-2-yl)piperidine-2,6-dione] |  | > 100 nM | > 200 nM | 

Further lines, with some results ahead:

DC50 (KRAS G12V) | GI50 (SW620 cells; SW620 cells, 6 days) | IC50 (KRAS-G12V/RAF1) | Compound | GI50 (SW620 cells)
1 to 10 nM | < 10 nM | > 200 nM | CCc1c(F)ccc2cc(O)cc(-c3ncc4c(N5CCCn6nc(C(=O)N(C)C)c(Cl)c6C5)nc(OCC5(CN6CCC(CN7CCN(c8ccc9c(c8)CN([C@H]8CCC(=O)NC8=O)C9=O)CC7)CC6)CC5)nc4c3F)c12 [Compound 108, (S)-3-chloro-5-(2-((1-((4-((4-(2-(2,6-dioxopiperidin-3-yl)-1-oxoisoindolin-5-yl)piperazin-1-yl)methyl)piperidin-1-yl)methyl)cyclopropyl)methoxy)-7-(8-ethyl-7-fluoro-3-hydroxynaphthalen-1-yl)-8-fluoropyrido[4,3-d]pyrimidin-4-yl)-N,N-dimethyl-5,6,7,8-tetrahydro-4H-pyrazolo[1,5-a][1,4]diazepine-2-carboxamide] | 
< 1 nM | < 10 nM | < 20 nM | CCc1c(F)ccc2cc(O)cc(-c3ncc4c(N5CCC[C@@](C)(O)C5)nc(OCC5(CN6CCC(CN7CCC(N8CCN(c9ccc%10c(c9)CN([C@H]9CCC(=O)NC9=O)C%10=O)CC8)CC7)CC6)CC5)nc4c3F)c12 [Compound 148, (S)-3-(5-(4-(1-((1-((1-(((7-(8-ethyl-7-fluoro-3-hydroxynaphthalen-1-yl)-8-fluoro-4-((R)-3-hydroxy-3-methylpiperidin-1-yl)pyrido[4,3-d]pyrimidin-2-yl)oxy)methyl)cyclopropyl)methyl)piperidin-4-yl)methyl)piperidin-4-yl)piperazin-1-yl)-1-oxoisoindolin-2-yl)piperidine-2,6-dione] | 
> 100 nM | < 10 nM | > 200 nM | CCc1c(F)ccc2cc(O)cc(-c3ncc4c(N5CCC[C@@](C)(O)C5)nc(OCC5(CN6CCC(C#N)(CN7CCN(c8ccc9c(c8)CN([C@H]8CCC(=O)NC8=O)C9=O)CC7)CC6)CC5)nc4c3F)c12 [Compound 20, 4-((4-(2-((S)-2,6-dioxopiperidin-3-yl)-1-oxoisoindolin-5-yl)piperazin-1-yl)methyl)-1-((1-(((7-(8-ethyl-7-fluoro-3-hydroxynaphthalen-1-yl)-8-fluoro-4-((R)-3-hydroxy-3-methylpiperidin-1-yl)pyrido[4,3-d]pyrimidin-2-yl)oxy)methyl)cyclopropyl)methyl)piperidine-4-carbonitrile] | 
< 1 nM | < 10 nM | 20 to 200 nM | CCc1c(F)ccc2cc(O)cc(-c3ncc4c(N5CCC[C@@](C)(O)C5)nc(OCC5(CN6CC7(CCC(F)(CN8CCN(c9ccc%10c(c9)CN([C@H]9CCC(=O)NC9=O)C%10=O)CC8)CC7)C6)CC5)nc4c3F)c12 [Compound 178, (S)-3-(5-(4-((2-((1-(((7-(8-ethyl-7-fluoro-3-hydroxynaphthalen-1-yl)-8-fluoro-4-((R)-3-hydroxy-3-methylpiperidin-1-yl)pyrido[4,3-d]pyrimidin-2-yl)oxy)methyl)cyclopropyl)methyl)-7-fluoro-2-azaspiro[3.5]nonan-7-yl)methyl)piperazin-1-yl)-1-oxoisoindolin-2-yl)piperidine-2,6-dione] | 
< 1 nM | < 10 nM | < 20 nM | CCc1c(F)ccc2cc(O)cc(-c3ncc4c(N5CCC[C@@](C)(O)C5)nc(OCC5(CN6CCC(N7CCC(N8CCN(c9ccc%10c(c9)CN([C@H]9CCC(=O)NC9=O)C%10=O)CC8)CC7)CC6)CC5)nc4c3F)c12 [Compound 147, (S)-3-(5-(4-(1′-((1-(((7-(8-ethyl-7-fluoro-3-hydroxynaphthalen-1-yl)-8-fluoro-4-((R)-3-hydroxy-3-methylpiperidin-1-yl)pyrido[4,3-d]pyrimidin-2-yl)oxy)methyl)cyclopropyl)methyl)-[1,4′-bipiperidin]-4-yl)piperazin-1-yl)-1-oxoisoindolin-2-yl)piperidine-2,6-dione] | 
